In US20210308308A1, “SYRINGE AND KIT FOR INTRAVESICAL USE” (Farco-Pharma GmbH, priority 2020, published 2021):
Counter-ions that a name gives are not always drawn.

Assay: stability of oxybutynin hydrochloride composition during terminal vapor sterilization in prefilled piston syringes

## CCN(CC)CC#CCOC(=O)C(O)(c1ccccc1)C1CCCCC1 (centres unmarked) [oxybutynin hydrochloride, 4-diethylaminobut-2-inyl-2-cyclohexyl-2-hydroxy-2-phenyl ethanoate]
1 mg/ml, pH 4.0, polypropylene syringes with piston plugs of conventional rubber material, vapor sterilization
  further impurities after vapor sterilization: exceeding 0.5%
Aqueous composition, polypropylene (disposable) syringes, piston plugs and closing caps of commonly used rubber materials
  stability during thermal sterilization (in words): high instability or incompatibility
